Assay results from US20220040280A1, “INHIBITORS AND USES THEREOF” (UNIVERSITY OF CANBERRA, priority 2016, published 2022).

Key:
LSD1s111p [1] = test: Confocal microscopy of LSD1s111p in xenografted MDA-MB-231 cells; assay type: in vivo, mouse; conditions: xenograft MDA-MB-231 cells; Abraxane 60 mg/kg, Docetaxel 10 mg/kg, Phenelzine 41 mg/kg; relative to vehicle control
Text: (§1) Cells were probed with either rabbit antibodies to LSD1s111p (Merck ABE1462), EGFR (AB2430), MET (ab51067), PD-L1 (sc-50298), goat antibodies to PD-L1 (sc-19091), SC-14033), (sc-19096), mouse antibodies to Cytokeratin (Miltenyi 130-090-866), CSV (Abnova H00007431-M08), vimentin (SC-6260) followed by visualisation with secondary anti mouse Alexa-Fluor 568 (A10037), secondary anti rabbit Alexa-Fluor 488 (A21206) or secondary anti goat Alexa-Fluor 633 (A21082).
The nuclear intensity of LSD1s111p was measured using confocal laser scanning microscopy in xenografted MDA-MB-231 cells treated with vehicle alone or Abraxene (60 mg/kg) or Docetaxel (10 mg/kg). Cells were fixed with 3.7% formaldehyde and permeabilized with 2% Triton-X-100, and then probed with a primary rabbit antibody to LSD1s111p, followed by the corresponding secondary antibody conjugated to Alexa-Fluor 488. Total nuclear fluorescence (TNFI) values for xenografted MDA-MB-231 cells were calculated. Data shown represents the mean±SE for at least 20 individual cells.

EGFR = test: Confocal microscopy of EGFR in xenografted MDA-MB-231 cells; assay type: in vivo, mouse; conditions: xenograft MDA-MB-231 cells; Abraxane 60 mg/kg, Docetaxel 10 mg/kg, Phenelzine 41 mg/kg; relative to vehicle control
Text: as §1

SNAIL [2] = test: Confocal microscopy of SNAIL in xenografted MDA-MB-231 cells; assay type: in vivo, mouse; conditions: xenograft MDA-MB-231 cells; Abraxane 60 mg/kg, Docetaxel 10 mg/kg; relative to vehicle
Text: as §1

MET = test: Confocal microscopy of MET in xenografted MDA-MB-231 cells; assay type: in vivo, mouse; conditions: xenograft MDA-MB-231 cells; Abraxane 60 mg/kg, Docetaxel 10 mg/kg, FIG. 11
Text: as §1

cytokeratin [3] = test: Confocal microscopy of cytokeratin in xenografted MDA-MB-231 cells; assay type: in vivo, mouse; conditions: xenograft MDA-MB-231 cells; Abraxane 60 mg/kg, Phenelzine 41 mg/kg, FIG. 9
Text: as §1

PD-L1 [4] = test: Confocal microscopy of PD-L1 in xenografted MDA-MB-231 cells; assay type: in vivo, mouse; conditions: xenograft MDA-MB-231 cells; Abraxane 60 mg/kg, Phenelzine 41 mg/kg, FIG. 9
Text: as §1

[5] = tested on: cell surface vimentin (CSV); test: Confocal microscopy of cell surface vimentin in xenografted MDA-MB-231 cells; assay type: in vivo, mouse; conditions: xenograft MDA-MB-231 cells; Abraxane 60 mg/kg, Phenelzine 41 mg/kg, FIG. 10
Text: as §1

LSD1s111p [6] = biological target: T1, LSD1s111p (Homo sapiens, UniProt O60341); test: Confocal microscopy of LSD1s111p in patient circulating tumor cells; assay type: cell-based; conditions: CTCs from two metastatic breast cancer patient liquid biopsies, FIG. 16
T1 construct: endogenous in cells; host or cells: circulating tumor cells from metastatic breast cancer patient blood
Text: as §1

PD-L2 = conditions: CTCs from two metastatic breast cancer patient liquid biopsies, FIG. 16
Protocol: (§2) Cells were permeabilised by incubating with 2% Triton X-100 for 20 min. Cells were probed with either rabbit antibodies to LSD1s111p (Merck ABE1462), EGFR (AB2430), MET (ab51067), PD-L1 (sc-50298), goat antibodies to PD-L1 (sc-19091), SC-14033), (sc-19096), mouse antibodies to Cytokeratin (Miltenyi 130-090-866), CSV (Abnova H00007431-M08), vimentin (SC-6260) followed by visualisation with secondary anti mouse Alexa-Fluor 568 (A10037), secondary anti rabbit Alexa-Fluor 488 (A21206) or secondary anti goat Alexa-Fluor 633 (A21082). Cover slips were mounted on glass microscope slides with ProLong Diamond Antifade© reagent (Life Technologies). Antibody staining was localised by confocal laser scanning microscopy. Single 0.5 μm sections were obtained using a Nikon x 60 oil immersion lens on the Nikon C1 plus confocal system running NIS-Elements AR 3.2 software. […] Digital confocal images were analysed using ImageJ software (ImageJ, NIH, Bethesda, Md., USA) to determine the nuclear/cytoplasmic fluorescence ratio (Fn/c) using the equation: Fn/c=(Fn−Fb)/(Fc−Fb), where Fn is nuclear fluorescence, Fc is cytoplasmic fluorescence, and Fb is background fluorescence or the Total Nuclear Fluorescence (TNFI), the Total Cytoplasmic Fluorescence (TCFI) or Total cell fluorescence. […] Florescence intensity was also measured in a minimum of n=10 cells for each sample set. […]

cytokeratin [7] = conditions: CTCs from two metastatic breast cancer patient liquid biopsies, FIG. 16
Protocol: as §2

PD-L1 [8] = conditions: CTCs from metastatic breast cancer patients, in all but one patient, FIG. 17
Protocol: as §2

SNAIL [9] = conditions: CTCs from metastatic breast cancer patients, in all but one patient, FIG. 17
Protocol: as §2

Structure (SMILES)	LSD1s111p expression, nuclear fluorescent signal (TNFI) (LSD1s111p [1])	EGFR nuclear expression (TNFI) (EGFR)	SNAIL nuclear fluorescent signal (TNFI) (SNAIL [2])	MET nuclear expression (TNFI) (MET)	cytokeratin expression (cytokeratin [3])	PD-L1 expression in the cytoplasm (TCFI) (PD-L1 [4])	PD-L1 expression in the nucleus (TNFI) (PD-L1 [4])	PD-L1 nuclear bias (Fn/c) (PD-L1 [4])	total PD-L1 expression (PD-L1 [4])	cell surface vimentin (CSV) cytoplasmic expression (TCFI) [5]	expression of LSD1s111p (TCFI) (LSD1s111p [6])	expression of PD-L2 (TCFI) (PD-L2)	expression of cytokeratin (TCFI) (cytokeratin [7])	PD-L1 expression (total cell fluorescence) (PD-L1 [8])	SNAIL expression (total cell fluorescence) (SNAIL [9])
CC(=O)O[C@@]12CO[C@@H]1C[C@H](O)[C@@]1(C)C(=O)[C@H](O)C3=C(C)[C@@H](OC(=O)[C@H](O)[C@@H](NC(=O)OC(C)(C)C)c4ccccc4)C[C@@](O)([C@@H](OC(=O)c4ccccc4)[C@H]21)C3(C)C [Docetaxel]	significantly increased	significantly increased	significantly increased	significantly increased	–	–	–	–	–	–	–	–	–	–	–
NNCCc1ccccc1 [Phenelzine, (+)-2-phenylethylhydrazine]	inhibitory effect	inhibitory effect	–	–	abrogated	significantly abrogated	significantly abrogated	higher	significantly reduced	abrogated	significant knockdown	significant knockdown	significant knockdown	significant knockdown	significant knockdown
